# Test system: STAT1 (phosphorylated at Tyr701) in NCI-H1373 cells
# Test: Phospho-STAT1 (Tyr701) LANCE Ultra TR-FRET detection assay
# Assay type: cell-based
# Conditions: Homo sapiens, NCI-H1373, 48 h, induction of pSTAT1 in NCI-H1373 cells, 48 hours incubation; normalized to 10 uM positive control and DMSO; 4-parameter fit; read-out: NH1373 pSTAT1 EC50
# Protocol: Phospho-STAT1 (Tyr701 LANCE Ultra TR-FRET Detection Assay
# LANCE Ultra phospho-STAT1 (Tyr701) kits are designed for the detection of phosphorylated STAT1 in cell lysates using a simple, homogeneous LANCE Ultra sandwich assay (Cat. #TRF4028M). This assay is intended for assessing compound induction of endogenous levels of cellular STAT1 (phosphorylated at Tyr701) in NCI-H1373 cells. The NCI-H1373 cells are cultured in RPMI 1640 media containing 10% heat inactivated FBS, GlutaMAX, 1% Penicillin-Streptomycin. An Echo acoustic liquid handler is used to transfer 60 nanoliters of compound dilutions using the Echo Qualified, 384-well polypropylene microplate clear flat bottom source plates into a Greiner (#781080) cell culture microplate. NCI-H1373 cells are seeded into these compound-spotted culture plates at 30,000 cells/well in a 60 uL volume in growth media. The plates are incubated in a 5% CO2 humidified incubator at 37° C. for 48 hours. […] Briefly, […] of supplemented lysis buffer is added to each well and allowed to shake for 1 hour at 400 rpm. Next, 5 ul of remixed antibody solutions (vol/vol) prepared in detection buffer are added to each well and allowed to incubate at room temperature overnight. After spinning the plate down at 300 rpm for 1 min, the plate is read on an EnVision plate reader set up for Eu3+ Cryptate and fluorescence emission is measured at two different wavelengths (665 nm and 620 nm). The HTRF ratio is then calculated ([…]) for each well to determine the amount of pSTAT1 in the cell lysate, and the data is then normalized to 10 uM (S)-5-((1-(3-oxo-3-(4-(5-(trifluoromethyl)pyrimidin-2-yl)piperazin-1-yl)propoxy)propan-2-yl)amino)-4-(trifluoromethyl)pyridazin-3(2H)-one positive and DMSO negative controls. The values were then plotted as a function of compound concentration and a 4-parameter fit was applied to derive the EC50 values.
row,Compound,EC50 [nM]
1,"O=c1[nH]ncc(N[C@H]2CCC[C@@H](Cn3ccc4cc(-c5nc6n(n5)COCCO6)c(F)cc4c3=O)C2)c1C(F)(F)F [Example 8, 6-(7,8-dihydro-5H-[1,2,4]triazolo[5,1-b][1,5,3]dioxazepin-2-yl)-7-fluoro-2-(((1R,3S)-3-((6-oxo-5-(trifluoromethyl)-1,6-dihydropyridazin-4-yl)amino)cyclohexyl)methyl)isoquinolin-1(2H)-one]",5.86
2,"O=c1[nH]ncc(N[C@H]2CCC[C@@H](Cn3ccc4cc(-c5ncc6c(n5)NCCO6)c(F)cc4c3=O)C2)c1C(F)(F)F [Example 9, 6-(7,8-dihydro-6H-pyrimido[5,4-b][1,4]oxazin-2-yl)-7-fluoro-2-(((1R,3S)-3-((6-oxo-5-(trifluoromethyl)-1,6-dihydropyridazin-4-yl)amino)cyclohexyl)methyl)isoquinolin-1(2H)-one]",6.39
3,"CC(O)c1cnc(-c2cc3ccn(C[C@@H]4CCC[C@H](Nc5cn[nH]c(=O)c5C(F)(F)F)C4)c(=O)c3cc2F)nc1 (stereo partly drawn) [Example 10, 7-fluoro-6-(5-(1-hydroxyethyl)pyrimidin-2-yl)-2-(((1R,3S)-3-((6-oxo-5-(trifluoromethyl)-1,6-dihydropyridazin-4-yl)amino)cyclohexyl)methyl)isoquinolin-1(2H)-one]",6.86
4,"CS(=O)(=O)c1ccc(-c2cc3ccn(C[C@@H]4CCC[C@H](Nc5cn[nH]c(=O)c5C(F)(F)F)C4)c(=O)c3cc2F)nc1 [Example 11, 7-fluoro-6-(5-(methylsulfonyl)pyridin-2-yl)-2-(((1R,3S)-3-((6-oxo-5-(trifluoromethyl)-1,6-dihydropyridazin-4-yl)amino)cyclohexyl)methyl)isoquinolin-1(2H)-one]",13.6
5,"O=c1[nH]ncc(N[C@H]2CCC[C@@H](Cn3ccc4cc(-c5ncc(F)cn5)c(F)cc4c3=O)C2)c1C(F)(F)F [Example 12, 7-fluoro-6-(5-fluoropyrimidin-2-yl)-2-(((1R,3S)-3-((6-oxo-5-(trifluoromethyl)-1,6-dihydropyridazin-4-yl)amino)cyclohexyl)methyl)isoquinolin-1(2H)-one]",23.2
6,"CS(=O)(=O)c1cnc(-c2cc3ccn(C[C@@H]4CCC[C@H](Nc5cn[nH]c(=O)c5C(F)(F)F)C4)c(=O)c3cc2F)nc1 [Example 13, 7-fluoro-6-(5-(methylsulfonyl)pyrimidin-2-yl)-2-(((1R,3S)-3-((6-oxo-5-(trifluoromethyl)-1,6-dihydropyridazin-4-yl)amino)cyclohexyl)methyl)isoquinolin-1(2H)-one]",6.21
7,"O=c1[nH]ncc(N[C@H]2CCC[C@@H](Cn3ccc4cc(-c5ncc(OCC(F)F)cn5)c(F)cc4c3=O)C2)c1C(F)(F)F [Example 14, 6-(5-(2,2-difluoroethoxy)pyrimidin-2-yl)-7-fluoro-2-(((1R,3S)-3-((6-oxo-5-(trifluoromethyl)-1,6-dihydropyridazin-4-yl)amino)cyclohexyl)methyl)isoquinolin-1(2H)-one]",44.2
8,"CC(C)(O)COc1cnc(-c2cc3ccn(C[C@@H]4CCC[C@H](Nc5cn[nH]c(=O)c5C(F)(F)F)C4)c(=O)c3c(F)c2F)nc1 [Example 16, 7,8-difluoro-6-(5-(2-hydroxy-2-methylpropoxy)pyrimidin-2-yl)-2-(((1R,3S)-3-((6-oxo-5-(trifluoromethyl)-1,6-dihydropyridazin-4-yl)amino)cyclohexyl)methyl)isoquinolin-1(2H)-one]",31.3
9,"O=c1[nH]ncc(N[C@H]2CCC[C@@H](Cn3ccc4cc(-c5nc6ccc(F)cn6n5)c(F)c(F)c4c3=O)C2)c1C(F)(F)F [Example 17, 7,8-difluoro-6-(6-fluoro-[1,2,4]triazolo[1,5-a]pyridin-2-yl)-2-(((1R,3S)-3-((6-oxo-5-(trifluoromethyl)-1,6-dihydropyridazin-4-yl)amino)cyclohexyl)methyl)isoquinolin-1(2H)-one]",1.16
10,"CC(C)(O)c1cnc(-c2cc3ccn(C[C@@H]4CCC[C@H](Nc5cn[nH]c(=O)c5C(F)(F)F)C4)c(=O)c3c(F)c2F)nc1 [Example 18, 7,8-difluoro-6-(5-(2-hydroxypropan-2-yl)pyrimidin-2-yl)-2-(((1R,3S)-3-((6-oxo-5-(trifluoromethyl)-1,6-dihydropyridazin-4-yl)amino)cyclohexyl)methyl)isoquinolin-1(2H)-one]",3.23
11,"O=c1[nH]ncc(N[C@H]2CCC[C@@H](Cn3ccc4cc(-c5ccc(C(F)F)cn5)c(F)c(F)c4c3=O)C2)c1C(F)(F)F [Example 19, 6-(5-(difluoromethyl)pyridin-2-yl)-7,8-difluoro-2-(((1R,3S)-3-((6-oxo-5-(trifluoromethyl)-1,6-dihydropyridazin-4-yl)amino)cyclohexyl)methyl)isoquinolin-1(2H)-one]",4.78
12,"CC(F)(F)c1cnc(-c2cc3ccn(C[C@@H]4CCC[C@H](Nc5cn[nH]c(=O)c5C(F)(F)F)C4)c(=O)c3c(F)c2F)nc1 [Example 20, 6-(5-(1,1-difluoroethyl)pyrimidin-2-yl)-7,8-difluoro-2-(((1R,3S)-3-((6-oxo-5-(trifluoromethyl)-1,6-dihydropyridazin-4-yl)amino)cyclohexyl)methyl)isoquinolin-1(2H)-one]",1.61
13,"O=c1[nH]ncc(N[C@H]2CCC[C@@H](Cn3ccc4cc(-c5ncc(OC(F)F)cn5)c(F)c(F)c4c3=O)C2)c1C(F)(F)F [Example 21, 6-(5-(difluoromethoxy)pyrimidin-2-yl)-7,8-difluoro-2-(((1R,3S)-3-((6-oxo-5-(trifluoromethyl)-1,6-dihydropyridazin-4-yl)amino)cyclohexyl)methyl)isoquinolin-1(2H)-one]",1.52
14,"COc1nc(-c2cc3ccn(C[C@@H]4CCC[C@H](Nc5cn[nH]c(=O)c5C(F)(F)F)C4)c(=O)c3c(F)c2F)ncc1C#N [Example 22, 2-(7,8-difluoro-1-oxo-2-(((1R,3S)-3-((6-oxo-5-(trifluoromethyl)-1,6-dihydropyridazin-4-yl)amino)cyclohexyl)methyl)-1,2-dihydroisoquinolin-6-yl)-4-methoxypyrimidine-5-carbonitrile]",2.42
15,"O=c1[nH]ncc(N[C@H]2CCC[C@@H](Cn3cc(F)c4cc(-c5ncc(OC(F)(F)F)cn5)c(F)cc4c3=O)C2)c1C(F)(F)F [Example 23, 4,7-difluoro-2-(((1R,3S)-3-((6-oxo-5-(trifluoromethyl)-1,6-dihydropyridazin-4-yl)amino)cyclohexyl)methyl)-6-(5-(trifluoromethoxy)pyrimidin-2-yl)isoquinolin-1(2H)-one]",9.13
16,"CS(=N)(=O)c1cnc(-c2cc3ccn(C[C@@H]4CCC[C@H](Nc5cn[nH]c(=O)c5C(F)(F)F)C4)c(=O)c3c(F)c2F)nc1 (stereo partly drawn) [Example 24, 7,8-difluoro-6-(5-(methylsulfonimidoyl)pyrimidin-2-yl)-2-(((1R,3S)-3-((6-oxo-5-(trifluoromethyl)-1,6-dihydropyridazin-4-yl)amino)cyclohexyl)methyl)isoquinolin-1(2H)-one]",38.1
17,"O=c1[nH]ncc(N[C@H]2CCC[C@@H](Cn3cnc4cc(-c5ncc(OC(F)F)cn5)c(F)cc4c3=O)C2)c1C(F)(F)F [Example 25, 7-(5-(difluoromethoxy)pyrimidin-2-yl)-6-fluoro-3-(((1R,3S)-3-((6-oxo-5-(trifluoromethyl)-1,6-dihydropyridazin-4-yl)amino)cyclohexyl)methyl)quinazolin-4(3H)-one]",3.78
18,"[2H]C([2H])([2H])Oc1cnc(-c2cc3ncn(C[C@@H]4CCC[C@H](Nc5cn[nH]c(=O)c5C(F)(F)F)C4)c(=O)c3cc2F)nc1 [Example 26, 6-fluoro-7-(5-(methoxy-d3)pyrimidin-2-yl)-3-(((1R,3S)-3-((6-oxo-5-(trifluoromethyl)-1,6-dihydropyridazin-4-yl)amino)cyclohexyl)methyl)quinazolin-4(3H)-one]",5.63
19,"CC(O)(c1cnc(-c2cc3ccn(C[C@@H]4CCC[C@H](Nc5cn[nH]c(=O)c5C(F)(F)F)C4)c(=O)c3cc2F)nc1)C(F)F (stereo partly drawn) [Example 27, 6-(5-(1,1-difluoro-2-hydroxypropan-2-yl)pyrimidin-2-yl)-7-fluoro-2-(((1R,3S)-3-((6-oxo-5-(trifluoromethyl)-1,6-dihydropyridazin-4-yl)amino)cyclohexyl)methyl)isoquinolin-1(2H)-one]",16.8
20,"CC(O)(c1cnc(-c2cc3ccn(C[C@@H]4CCC[C@H](Nc5cn[nH]c(=O)c5C(F)(F)F)C4)c(=O)c3c(F)c2F)nc1)C(F)F (stereo partly drawn) [Example 28, 6-(5-(1,1-difluoro-2-hydroxypropan-2-yl)pyrimidin-2-yl)-7,8-difluoro-2-(((1R,3S)-3-((6-oxo-5-(trifluoromethyl)-1,6-dihydropyridazin-4-yl)amino)cyclohexyl)methyl)isoquinolin-1(2H)-one]",5.84

# — patent US20250100998A1, “PARP7 INHIBITORS” (Gilead Sciences, Inc., priority 2023, published 2025)
